According to ChEMBL document CHEMBL4033646, “Structure of a Myeloid cell leukemia-1 (Mcl-1) inhibitor bound to drug site 3 of Human Serum Albumin” (Bioorg Med Chem, 2017):

What was measured:
[1] = molecular target: T1, Induced myeloid leukemia cell differentiation protein Mcl-1 (Homo sapiens, UniProt Q07820); experiment: Inhibition of FITC-Bak-BH3 binding to recombinant MBP-fused MCL1 (172 to 318 residues) (unknown origin) in presence of 1% FBS by TR-FRET assay
[2] = molecular target: T1, Induced myeloid leukemia cell differentiation protein Mcl-1; experiment: Inhibition of FITC-Bak-BH3 binding to recombinant MBP-fused MCL1 (172 to 318 residues) (unknown origin) by TR-FRET assay

T1 sequence (Q07820 whole entry, the tested form may be a part): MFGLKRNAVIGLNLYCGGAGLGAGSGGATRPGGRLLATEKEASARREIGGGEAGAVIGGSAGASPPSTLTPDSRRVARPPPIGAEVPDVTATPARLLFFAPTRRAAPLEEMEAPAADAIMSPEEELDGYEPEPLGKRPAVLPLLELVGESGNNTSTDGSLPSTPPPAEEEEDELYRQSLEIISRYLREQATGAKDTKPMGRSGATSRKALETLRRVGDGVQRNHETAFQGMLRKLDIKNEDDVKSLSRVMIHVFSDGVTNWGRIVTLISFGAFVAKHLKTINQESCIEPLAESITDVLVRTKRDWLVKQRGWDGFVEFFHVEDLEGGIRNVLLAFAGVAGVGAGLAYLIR

Ki [1]	Ki [2]	Compound
73 nM	22 nM	Cc1cc(OCCCc2c(C(=O)O)[nH]c3c(-c4c(CN5CCCCC5)nn(C)c4C)cccc23)cc(C)c1Cl
32 nM	20 nM	Cc1cc(OCCCc2c(C(=O)O)[nH]c3c(-c4c(COCCN(C)C)nn(C)c4C)cccc23)cc(C)c1Cl
262 nM	48 nM	Cc1cc(OCCCc2c(C(=O)O)[nH]c3c(-c4c(C)nn(C)c4C)cccc23)cc(C)c1Cl
